This note sets out measurements from patent USRE47404E1, “Viral hepatitis treatment” (priority 2006, dated 2019).

Where two headings read alike, the source gives them in different places.

Data set [1] is described as follows: Cytotoxicity, neutral red dye uptake, AVA5. The data set is classed as cell-based. Conditions: human.
Experimental: (§6) Briefly, replicon cell lines were maintained as sub-confluent cultures on 96-well plates. Compounds were added daily for three days in fresh medium. Twenty-four hours after the last dose of compound, antiviral activity was determined by blot hybridization analysis of intracellular HCV RNA, and cytotoxicity was assessed by neutral red dye uptake. EC50, EC90, CC50 and selectivity index were calculated for each compound tested in a replicon cell line. EC50=drug concentration producing a 50% reduction of intracellular HCV RNA relative to the average levels in untreated cultures. EC90=drug concentration producing a 90% reduction of intracellular HCV RNA relative to the average levels in untreated cultures. CC50=drug concentration producing a 50% reduction of neutral red dye uptake relative to the average levels in untreated cultures. Selectivity index=CC50 divided by EC50. EC50, EC90 and CC50 values (±standard deviations [S.D.]) were calculated by linear regression analysis using data combined from all treated cultures.
Data set [2] has as its system HCV replication in JWT replicon cell line (subgenomic construct of genotype 1b). Nature of the data set: microbe, parasite or virus in culture. The data set is classed as cell-based, hepatitis C virus. The procedure:
(§1) Antiviral activity of nitazoxanide, tizoxanide, interferon α, ribavirin and 2′-C-methyl cytidine was assessed in five different HCV replicon cell lines: (1) AVA5, a subgenomic construct of genotype 1b (Blight et al., 2000, Science 290:1972-1974); (2) H/FL-Neo, a genotype 1a full length construct (Blight et al., 2003, Journal of Virology 77:3181-3190); (3) JWT, a subgenomic construct of genotype 1b (Pfeiffer and Kirkegaard, 2005, Journal of Virology, 79:2346-2355); (4) 4-3-10, a subgenomic construct of genotype 1b, developed by a protocol that involved serial passage of JWT cells in 100 μM for one month followed by 400 μM ribavirin for two weeks (Pfeiffer and Kirkegaard, 2005, Journal of Virology, 79:2346-2355); and (5) RP7, a subgenomic construct of genotype 1b (Elazar et al., 2003, Journal of Virology 77:6055-6061).
(§2) Antiviral activity for each test compound was determined as previously described (Okuse et al., 2005, Antiviral Research 65:23-34). Briefly, replicon cell lines were maintained as sub-confluent cultures on 96-well plates. Compounds were added daily for three days in fresh medium. Twenty-four hours after the last dose of compound, antiviral activity was determined by blot hybridization analysis of intracellular HCV RNA, and cytotoxicity was assessed by neutral red dye uptake. EC50, EC90, CC50 and selectivity index were calculated for each compound tested in a replicon cell line. […] Selectivity index=CC50 divided by EC50. EC50, EC90 and CC50 values (±standard deviations [S.D.]) were calculated by linear regression analysis using data combined from all treated cultures.
(§3) Nitazoxanide and tizoxanide were provided by Romark Laboratories, L.C. (Tampa, Fla. USA). […] Ribavirin was purchased from Sigma-Aldrich (St. Louis, Mo. USA). 2′-C-methyl cytidine (Pierra, et al. 2005, Nucleosides Nucleotides Nucleic Acids, 24:767-770) was purchased from Moraveck Biochemicals, Inc. (La Brea, Calif. USA). […] Ribavirin, nitazoxanide, tizoxanide and 2′-C-methyl cytidine were solubilized in 100% tissue culture grade DMSO (Sigma). […] Daily aliquots of test compounds were made from the stock solutions in individual tubes and stored at the appropriate temperatures. On each day of treatment, daily aliquots of the test compounds were suspended into culture medium at room temperature, and immediately added to the cell cultures, thereby subjecting each aliquot of test compound to the same, limited, number of freeze-thaw cycles.

Data set [3] is described as follows: Cytotoxicity, neutral red dye uptake, JWT. In kind it is cell-based. Particulars: human. The source says:
(§4) Selectivity index=CC50 divided by EC50.

In data set [4] the test system is HCV replication in AVA5 replicon cell line (subgenomic construct of genotype 1b). Nature of the data set: microbe, parasite or virus in culture. Conditions: for S.I. = CC50/EC50: AVA5 cell cultures (Table 2). As for the experimental part:
as §1, §2, §3
Analyses of interactions between compounds used in combination treatments were performed using Calcusyn™ software (Biosoft, Cambridge, UK).

Data set [5] relates to HCV replication in five HCV genotype 1-derived replicon cell lines. The data set is described as follows: Median over the five HCV replicon cell lines. In kind it is cell-based, hepatitis C virus. Conditions: median of the replicon cell lines; for EC50 / EC90: Hepatitis C virus. As for the experimental part: as §1, §2
(In general: Replicon systems follow genome replication, usually without infectious particles.)

Data set [6] in a line: Cytotoxicity, neutral red dye uptake, RP7. In kind it is cell-based. Conditions: human. The procedure: as §4
(§5) The parental replicon-containing cell line was established by electroporation of RNA transcribed in vitro off of the Sca-I-linearized Bart 79I plasmid into Huh-7 cells (Elazar et al., 2003). Bart79I encodes for a second-generation high-efficiency bi-cistronic sub-genomic replicon of genotype 1b containing a single adaptive mutation (S1179I) in the NS5A gene, and the neomycinphosphotransferase gene in the first cistron. The electroporated cells were plated along with naïve Huh-7 feeder cells and grown in medium—DMEM (4.5 g/l glucose, L-glutamine and sodium pyruvate—Mediatech 10-013-CV), 10% fetal bovine serum, 1% Penicillin-streptomycin, 1% L-glutamine (final concentration 2 mM), 1×MEM Non-Essential Amino Acids (100×) (Invitrogen)—and 1 mg/ml G418. […] One of the resulting colonies was isolated, expanded, passaged in 700 μg/ml G418, and termed RP-7.

In data set [7] the test system is HCV replication in RP7 replicon cell line (subgenomic construct of genotype 1b). Nature of the data set: microbe, parasite or virus in culture. The data set is classed as cell-based, hepatitis C virus. As for the experimental part:
as §1, §2, §3
To evaluate the effect of interferon alpha following pre-treatment with nitazoxanide or tizoxanide, a parental replicon-containing cell line (RP-7) was serially passaged in increasing concentrations of nitazoxanide or tizoxanide. Anti-HCV activity of interferon alpha-2b was determined using the parental cell line and using the cell lines obtained after passage in nitazoxanide or tizoxanide. Anti-HCV activity was determined by the methods described above.
as §5

The nature of data set [8]: Cytotoxicity, neutral red dye uptake, H/FL-Neo. The data set is classed as cell-based. Particulars: human.
Experimental: as §6
Another data set relates to HCV replication. The data set is described as follows: Effect of nitazoxanide pre-treatment and treatment duration (3 or 6 days) on antiviral activity in replicon cultures. In kind it is cell-based, hepatitis C virus. Conditions: for EC50 / EC90: Hepatitis C virus, expressed as NTZ concentration; for EC50: read-out: EC50, NTZ; for EC90: read-out: EC90, NTZ; for EC50, IFNα-2b / EC90, IFNα-2b: expressed as IFNα-2b concentration. As for the experimental part:
as §2, with “Compounds were added daily for three days in fresh medium.” left out
Antiviral activity and cytotoxicity was determined 24 hours after the end of each respective treatment as described previously.

Data set [9] relates to HCV replication in H/FL-Neo replicon cell line (genotype 1a full length construct). The data set is described as follows: microbe, parasite or virus in culture. The data set is classed as cell-based, hepatitis C virus. The procedure: as §1, §2, §3
Data set [10] deals with HCV replication in 4-3-10 replicon cell line (subgenomic genotype 1b, JWT cells passaged in ribavirin). Nature of the data set: microbe, parasite or virus in culture. In kind it is cell-based, hepatitis C virus. The procedure: as §1, §2, §3
A short description of data set [11]: Cytotoxicity, neutral red dye uptake, 4-3-10. The data set is classed as cell-based. Particulars: human.
From the text: as §4

The test system of data set [12] is HCV replication in RP7 cells passaged in nitazoxanide. The data set is described as follows: HCV replicon antiviral assay, RP7 cells passaged in nitazoxanide. In kind it is cell-based, hepatitis C virus. Conditions: cell lines passaged in nitazoxanide or tizoxanide. As for the experimental part: as §2
To evaluate the effect of interferon alpha following pre-treatment with nitazoxanide or tizoxanide, a parental replicon-containing cell line (RP-7) was serially passaged in increasing concentrations of nitazoxanide or tizoxanide. Anti-HCV activity of interferon alpha-2b was determined using the parental cell line and using the cell lines obtained after passage in nitazoxanide or tizoxanide. Anti-HCV activity was determined by the methods described above. […]

The mark [13] stands for this setting: Hepatitis C virus, read-out: EC50.
[14] abbreviates: Hepatitis C virus, read-out: EC90.
[15] abbreviates: AVA5 cell cultures, mono and combination treatments (Table 2).
Setting [16] is: Hepatitis C virus, GETYPE1B, Ava5, AVA5 cell cultures, mono and combination treatments (Table 2).
Setting [17] is: 4-3-10, interferon α-2b in IU/ml.
[18] abbreviates: AVA5 (Table 2), values for IFNα-2b expressed in IU/mL.

One may read the CC50 as the concentration that lowers cell viability or growth by half. Regarding `NC(=O)c1ncn([C@@H]2O[C@H](CO)[C@@H](O)[C@H]2O)n1` [Ribavirin], the CC50 at 3 days in data set [1] (AVA5 HCV replicon cells) turned out to be 84 ± 4.7 µM; in data set [3], 89 ± 7.5 µM; in data set [6] it was 77 ± 4.9 µM. The figures for the “S.I. (Selectivity Index) = CC50/EC50” value in data set [2], in data set [4] (AVA5) and in data set [7] were 3.9, 1.2 and 1.2, respectively. The EC50 came out at 23 ± 2.2 µM in data set [2] (setting [13]); 70 ± 0.5 µM in data set [4] (Hepatitis C virus, Ava5, 72 h); 69 µM in data set [5]; 69 ± 4.4 µM in data set [7] (setting [13]). Further, the EC90 in data set [2] (setting [14]) was determined as 62 ± 1.7 µM; in [4] (Hepatitis C virus, Ava5, AVA5), 220 ± 34 µM; in data set [5], 122 µM; in [7] (setting [14]), 122 ± 13 µM.

On to `CC(=O)Oc1ccccc1C(=O)Nc1ncc([N+](=O)[O-])s1` [Nitazoxanide, nitazoxanide], for which the CC50 at 3 days was 49 ± 1.5 µM in [8]; 39 ± 3.9 µM in data set [1] (AVA5); 38 ± 1.8 µM in data set [1] (setting [15]); 39 ± 1 µM in [3] (JWT, read-out: CC50); 34 ± 0.4 µM in data set [11]; 38 ± 0.8 µM in [6]. The EC50 with HCV replication (72 h, duration 3 days) was determined as 0.22 ± 0.03 µM; with HCV replication (144 h, duration 6 days) it was 0.2 ± 0.02 µM; in data set [9] (setting [13]), 0.33 ± 0.05 µM; in data set [10] (Hepatitis C virus) it was 0.1 ± 0.03 µM; in data set [2] (setting [13]), 0.11 ± 0.01 µM; in [4] (Hepatitis C virus, Ava5, 72 h), 0.13 ± 0.02 µM. Besides, the EC50 in data set [5] was 0.13 µM; in [7] (setting [13]) it was 0.16 ± 0.01 µM. The EC90 with HCV replication (72 h, duration 3 days) was 1 ± 0.1 µM; in the data set on HCV replication (144 h, duration 6 days) it was 0.92 ± 0.1 µM; in [9] (setting [14]) it was 1.1 ± 0.1 µM; in data set [10] (Hepatitis C virus), 0.87 ± 0.16 µM; in data set [2] (setting [14]), 1 ± 0.2 µM; in data set [4] (Hepatitis C virus, Ava5, AVA5), 1 ± 0.2 µM. Moreover, the figures for the EC90 in data set [4] (setting [16]), in [5] and in data set [7] (setting [14]) were 0.93 ± 0.11 µM, 1 µM and 1.2 ± 0.1 µM, respectively. Moreover, the “S.I. (Selectivity Index) = CC50/EC50” value came out at 149 in data set [9]; 340 in data set [10] (4-3-10); 354 in data set [2]; 300 in data set [4] (AVA5); 238 in [7]. Moreover, the “S.I. = CC50/EC50” value in [4] is on record as 181.

Interferon α-2b: the “EC50, IFNα-2b” value stood at 1.9 ± 0.3 IU/mL with HCV replication (duration 3 days) and 1.7 ± 0.2 IU/mL with HCV replication (duration 6 days). For the same molecule, the “EC90, IFNα-2b” value is 8.3 ± 0.9 IU/mL in the data set with HCV replication (duration 3 days) and 7.8 ± 0.8 IU/mL with HCV replication (duration 6 days). Besides, the EC50 in [9] (interferon α-2b in IU/ml) was found to be 2.1 ± 0.2 IU/ml; in data set [10] (setting [17]) it was 0.86 ± 0.06 IU/ml; in [2] (interferon α-2b in IU/ml) it was 0.77 ± 0.03 IU/ml; in data set [4] (setting [18]) it was 1.9 ± 0.22 IU/mL; in data set [4] (AVA5, interferon α-2b in IU/ml), 1.5 ± 0.2 IU/ml; in data set [7] (interferon α-2b in IU/ml), 0.41 ± 0.01 IU/ml. For the same molecule, the EC90 in data set [9] (interferon α-2b in IU/ml) was 9.4 ± 0.9 IU/ml; in data set [10] (setting [17]), 5.7 ± 0.4 IU/ml; in data set [2] (interferon α-2b in IU/ml), 2.6 ± 0.2 IU/ml; in data set [4] (setting [18]), 8.9 ± 0.92 IU/mL; in data set [4] (AVA5, interferon α-2b in IU/ml) it was 8.2 ± 0.8 IU/ml; in data set [7] (interferon α-2b in IU/ml) it was 3.6 ± 0.2 IU/ml. Also, the “Resistance after serial passage of the parental cell line in nitazoxanide or tizoxanide” value in data set [12] is “did not induce resistance”. Besides, the “Median EC50” value in [5] (interferon α-2b) came out at 0.86 IU/ml. Further, the “Median EC90” value in data set [5] (interferon α-2b) came out at 5.7 IU/ml.

Take `O=C(Nc1ncc([N+](=O)[O-])s1)c1ccccc1O` [Tizoxanide, tizoxanide]: the CC50 at 3 days was determined as 4.2 ± 0.2 µM in data set [8]; 25 ± 2.8 µM in [1] (AVA5); 15 ± 1.2 µM in data set [1] (setting [15]); 24 ± 2.9 µM in data set [3] (JWT, read-out: CC50); 21 ± 1.1 µM in [11]; 25 ± 1 µM in data set [6]. The “S.I. (Selectivity Index) = CC50/EC50” value in data set [9] was 17; in [10] (4-3-10), 191; in data set [2], 150; in data set [4] (AVA5), 208; in [7] it was 167. The EC50 in [9] (setting [13]) worked out at 0.25 ± 0.03 µM; in data set [10] (Hepatitis C virus), 0.11 ± 0.05 µM; in data set [2] (setting [13]) it was 0.16 ± 0.02 µM; in data set [4] (Hepatitis C virus, Ava5, 72 h) it was 0.12 ± 0.01 µM; in data set [5] it was 0.15 µM; in data set [7] (setting [13]), 0.15 ± 0.01 µM. Besides, the EC90 in data set [9] (setting [14]) amounted to 1 ± 0.1 µM; in data set [10] (Hepatitis C virus), 0.55 ± 0.08 µM; in [2] (setting [14]), 0.76 ± 0.03 µM; in data set [4] (Hepatitis C virus, Ava5, AVA5), 0.77 ± 0.1 µM; in data set [4] (setting [16]), 0.81 ± 0.92 µM; in data set [5], 0.77 µM. In data set [7] (setting [14]), the EC90 was 0.94 ± 0.1 µM. For the same molecule, the “S.I. = CC50/EC50” value in data set [4] came out at 100.
